Assays:
Settings in all cases: 2 µM
[1] = (§1) The drug is tested on Z-014 corresponding to rat gut metagenome with ENA study accession number: PRJEB37062 and ENA sample accession number: ERS12561814 for biotransformation under anaerobic condition. The drug concentrations were measured over 9 timepoints collected between 0 and 24 hours of incubation by liquid-chromatography-coupled mass spectrometry (LC–MS)
[2] = as §1, with “Z-019” for “Z-014”, “ERS12561818” for “ERS12561814”
[3] = as §1, with “on Z-025” for “on Z-014”, “to rabbit” for “to rat”, “number: ERS12561824” for “number: ERS12561814”
[4] = as §1, with “on Z-017” for “on Z-014”, “to mouse” for “to rat”, “number: ERS12561816” for “number: ERS12561814”
[5] = as §1, with “Z-008” for “Z-014”, “to” for “to rat gut”, “ERS12561808” for “ERS12561814”
[6] = as §1, with “Z-005” for “Z-014”, “to” for “to rat gut”, “ERS12561805” for “ERS12561814”
[7] = as §1, with “on Z-003” for “on Z-014”, “to pig” for “to rat”, “number: ERS12561803” for “number: ERS12561814”
[8] = as §1, with “Z-004” for “Z-014”, “to” for “to rat gut”, “ERS12561804” for “ERS12561814”
[9] = as §1, with “Z-029” for “Z-014”, “ERS12561828” for “ERS12561814”
[10] = as §1, with “on Z-002” for “on Z-014”, “to rabbit” for “to rat”, “number: ERS12561802” for “number: ERS12561814”
[11] = as §1, with “on Z-016” for “on Z-014”, “to mouse” for “to rat”, “number: ERS12561815” for “number: ERS12561814”
[12] = as §1, with “on Z-006” for “on Z-014”, “to mouse” for “to rat”, “number: ERS12561806” for “number: ERS12561814”
[13] = as §1, with “on Z-013” for “on Z-014”, “to rabbit” for “to rat”, “number: ERS12561813” for “number: ERS12561814”
[14] = as §1, with “Z-007” for “Z-014”, “ERS12561807” for “ERS12561814”
[15] = as §1, with “Z-023” for “Z-014”, “to” for “to rat gut”, “ERS12561822” for “ERS12561814”
[16] = as §1, with “Z-010” for “Z-014”, “to” for “to rat gut”, “ERS12561810” for “ERS12561814”
[17] = as §1, with “on Z-018” for “on Z-014”, “to pig” for “to rat”, “number: ERS12561817” for “number: ERS12561814”
[18] = as §1, with “on Z-024” for “on Z-014”, “to pig” for “to rat”, “number: ERS12561823” for “number: ERS12561814”
[19] = as §1, with “Z-027” for “Z-014”, “to” for “to rat gut”, “ERS12561826” for “ERS12561814”
[20] = as §1, with “on Z-030” for “on Z-014”, “to mouse” for “to rat”, “number: ERS12561829” for “number: ERS12561814”
[21] = as §1, with “on Z-011” for “on Z-014”, “to mouse” for “to rat”, “number: ERS12561811” for “number: ERS12561814”
[22] = as §1, with “Z-026” for “Z-014”, “to” for “to rat gut”, “ERS12561825” for “ERS12561814”
[23] = as §1, with “on Z-009” for “on Z-014”, “to pig” for “to rat”, “number: ERS12561809” for “number: ERS12561814”
[24] = as §1, with “on Z-001” for “on Z-014”, “to mouse” for “to rat”, “number: ERS12561801” for “number: ERS12561814”
[25] = as §1, with “Z-021” for “Z-014”, “to” for “to rat gut”, “ERS12561820” for “ERS12561814”
[26] = as §1, with “on Z-020” for “on Z-014”, “to rabbit” for “to rat”, “number: ERS12561819” for “number: ERS12561814”
[27] = as §1, with “on Z-022” for “on Z-014”, “to mouse” for “to rat”, “number: ERS12561821” for “number: ERS12561814”
[28] = as §1, with “on Z-028” for “on Z-014”, “to mouse” for “to rat”, “number: ERS12561827” for “number: ERS12561814”
[29] = as §1, with “Z-012” for “Z-014”, “to” for “to rat gut”, “ERS12561812” for “ERS12561814”
Also: call rule not given here.

## O=C1CCc2ccc(OCCCCN3CCN(c4cccc(Cl)c4Cl)CC3)cc2N1 [ARIPIPRAZOLE]
[1]
  Bacterial Biotransformation: Compound metabolized
[2]
  Bacterial Biotransformation: Compound NOT metabolized
[3]
  Bacterial Biotransformation: Compound metabolized
[4]
  Bacterial Biotransformation: Compound metabolized
[5]
  Bacterial Biotransformation: Compound metabolized
[6]
  Bacterial Biotransformation: Compound metabolized
[7]
  Bacterial Biotransformation: Compound metabolized
[8]
  Bacterial Biotransformation: Compound NOT metabolized
[9]
  Bacterial Biotransformation: Compound NOT metabolized
[10]
  Bacterial Biotransformation: Compound NOT metabolized
[11]
  Bacterial Biotransformation: Compound metabolized
[12]
  Bacterial Biotransformation: Compound metabolized
[13]
  Bacterial Biotransformation: Compound metabolized
[14]
  Bacterial Biotransformation: Compound NOT metabolized
[15]
  Bacterial Biotransformation: Compound metabolized
[16]
  Bacterial Biotransformation: Compound metabolized
[17]
  Bacterial Biotransformation: Compound metabolized
[18]
  Bacterial Biotransformation: Compound metabolized
[19]
  Bacterial Biotransformation: Compound NOT metabolized
[20]
  Bacterial Biotransformation: Compound NOT metabolized
[21]
  Bacterial Biotransformation: Compound NOT metabolized
[22]
  Bacterial Biotransformation: Compound metabolized
[23]
  Bacterial Biotransformation: Compound metabolized
[24]
  Bacterial Biotransformation: Compound NOT metabolized
[25]
  Bacterial Biotransformation: Compound metabolized
[26]
  Bacterial Biotransformation: Compound metabolized
[27]
  Bacterial Biotransformation: Compound metabolized
[28]
  Bacterial Biotransformation: Compound metabolized
[29]
  Bacterial Biotransformation: Compound NOT metabolized

## Cc1ccc(NC(=O)c2ccc(CN3CCN(C)CC3)cc2)cc1Nc1nccc(-c2cccnc2)n1 [IMATINIB]
[1]
  Bacterial Biotransformation: Compound NOT metabolized
[3]
  Bacterial Biotransformation: Compound NOT metabolized
[4]
  Bacterial Biotransformation: Compound NOT metabolized
[5]
  Bacterial Biotransformation: Compound NOT metabolized
[6]
  Bacterial Biotransformation: Compound NOT metabolized
[7]
  Bacterial Biotransformation: Compound NOT metabolized
[8]
  Bacterial Biotransformation: Compound NOT metabolized
[9]
  Bacterial Biotransformation: Compound NOT metabolized
[10]
  Bacterial Biotransformation: Compound NOT metabolized
[11]
  Bacterial Biotransformation: Compound NOT metabolized
[12]
  Bacterial Biotransformation: Compound NOT metabolized
[13]
  Bacterial Biotransformation: Compound NOT metabolized
[14]
  Bacterial Biotransformation: Compound NOT metabolized
[16]
  Bacterial Biotransformation: Compound NOT metabolized
[17]
  Bacterial Biotransformation: Compound NOT metabolized
[18]
  Bacterial Biotransformation: Compound NOT metabolized
[19]
  Bacterial Biotransformation: Compound NOT metabolized
[20]
  Bacterial Biotransformation: Compound NOT metabolized
[21]
  Bacterial Biotransformation: Compound NOT metabolized
[22]
  Bacterial Biotransformation: Compound NOT metabolized
[23]
  Bacterial Biotransformation: Compound NOT metabolized
[24]
  Bacterial Biotransformation: Compound NOT metabolized
[26]
  Bacterial Biotransformation: Compound NOT metabolized
[27]
  Bacterial Biotransformation: Compound NOT metabolized
[28]
  Bacterial Biotransformation: Compound NOT metabolized
[29]
  Bacterial Biotransformation: Compound NOT metabolized
